From US20110190351A1, “Benzoimidazole Derivatives and Glycogen Synthase Kinase-3 Beta Inhibitors Containing the Same” (Oncotherapy Science, Inc., priority 2008, published 2011)

Target: T1, GSK3beta (Homo sapiens, UniProt P49841)
T1 construct: purchased Invitrogen
Experiment: Z'-LYTE kinase assay (FRET, SER/THR 9 peptide)
Type: biochemical
Conditions: 0.04 ng/mcl GSKbeta (Invitrogen), 2 mcM SER/THR 9 peptide, 15 mcM ATP, 1 hour at room temperature, 1% DMSO
Description: GSK3beta activity was measured in the presence or absence of compounds using Z′-LYTE kinase assay (Rodems S M, et al., Assay Drug Dev Technol. 1: 9-19, 2002.) kit with SER/THR 9 peptide (Invitrogen) following the manufacturer's instruction. The Z′-LYTE kinase assay kit employs a fluorescence resonance energy transfer (FRET) between two fluorophores, coumarin and fluorescein, attached to each end of a substrate peptide.
Test compounds were dissolved in DMSO at 12.5 mM and then serially diluted as the DMSO concentration in the assays to be 1%. The serially diluted compounds, 0.04 ng/mcl GSKbeta (Invitrogen) and 2 mcM SER/THR 9 peptide were reacted in a reaction buffer (50 mM HEPES pH 7.5, 0.01% Brij-35, 10 mM MgCl2, 1 mM EGTA, 15 mcM ATP). For 0% phosphorylation control, ATP was omitted from the reaction mixture. For 100% phosphorylation control, SER/THR 9 phosphopeptide was used in place of the SER/THR 9 peptide. Following 1 hour incubation at room temperature, the reaction was stopped by the addition of half assay volume of development solution and further incubated for 1 hour at room temperature. After adding the half assay volume of stop reagent, emission signals of coumarin and fluorescein were measured by Wallac EnVision 2103 multilabel reader (PerkinElmer). The extent of phosphorylation was determined according to the 0% and 100% phosphorylation control samples using the following equation:
C100%=coumarin emission signal of the 100% phosphorylation control C0%=coumarin emission signal of the 0% phosphorylation control F100%=fluorescein emission signal of the 100% phosphorylation control F0%=fluorescein emission signal of the 0% phosphorylation control
IC50 values were calculated by nonlinear four parameter fit using SigmaPlot, version 10.0 (Systat Software, Inc.).

T1 sequence (P49841 whole entry): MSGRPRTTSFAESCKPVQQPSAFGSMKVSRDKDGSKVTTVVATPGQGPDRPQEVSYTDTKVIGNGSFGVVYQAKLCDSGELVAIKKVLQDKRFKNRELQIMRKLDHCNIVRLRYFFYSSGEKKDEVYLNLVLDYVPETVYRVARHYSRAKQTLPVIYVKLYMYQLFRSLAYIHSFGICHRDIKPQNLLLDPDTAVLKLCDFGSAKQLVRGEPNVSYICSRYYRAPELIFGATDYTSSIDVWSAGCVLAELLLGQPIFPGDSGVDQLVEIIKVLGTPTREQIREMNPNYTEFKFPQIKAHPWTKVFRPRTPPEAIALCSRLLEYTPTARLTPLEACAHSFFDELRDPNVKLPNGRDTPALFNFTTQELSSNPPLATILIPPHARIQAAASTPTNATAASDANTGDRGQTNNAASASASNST

SMILES | IC50 [nM]
O=C(Nc1cc(O)ccc1C(=O)NC1CCCNC1)c1cccs1 (stereo not drawn) [Example 122, N-(5-hydroxy-2-(piperidin-3-ylcarbamoyl)phenyl)thiophene-2-carboxamide] | 8100
O=C(NCCc1ccc(O)c(O)c1)c1ccc(O)c2[nH]c(-c3ccco3)nc12 [Example 80, N-(3,4-Dihydroxyphenethyl)-2-(furan-2-yl)-7-hydroxy-1H-benzo[d]imidazole-4-carboxamide] | 19
O=C(NCCc1ncc[nH]1)c1ccc(O)c2[nH]c(-c3cccs3)nc12 [Example 62, N-[2-(1H-Imidazol-2-yl)ethyl]-7-hydroxy-2-(thiophen-2-yl)-1H-benzo[d]imidazole-4-carboxamide] | 260
NS(=O)(=O)c1ccc(CNC(=O)c2ccc(O)c3[nH]c(-c4cccs4)nc23)cc1 [Example 8, 7-Hydroxy-N-(4-sulfamoylbenzyl)-2-(thiophen-2-yl)-1H-benzo[d]imidazole-4-carboxamide] | 52
NS(=O)(=O)c1ccc(CCNC(=O)c2ccc(O)c3[nH]c(-c4cccs4)nc23)cc1 [Example 21, 7-Hydroxy-N-(4-sulfamoylphenethyl)-2-(thiophen-2-yl)-1H-benzo[d]imidazole-4-carboxamide] | 280
Nc1ccc(CCNC(=O)c2ccc(O)c3nc(-c4ccccc4)[nH]c23)cc1 [Example 93, N-(4-Aminophenethyl)-4-hydroxy-2-phenyl-1H-benzo[d]imidazole-7-carboxamide] | 400
O=C(CCc1cnc[nH]1)Nc1ccc(O)c2[nH]c(-c3cccs3)nc12 [Example 121, N-(7-hydroxy-2-(thiophen-2-yl)-1H-benzo[d]imidazol-4-yl)-3-(1H-imidazol-5-yl)propanamide] | 1700
O=C(NCCNS(=O)(=O)c1ccncc1)c1ccc(O)c2[nH]c(-c3cccs3)nc12 [Example 40, 7-Hydroxy-N-[2-(pyridine-4-sulfonamido)ethyl]-2-(thiophen-2-yl)-1H-benzo[d]imidazole-4-carboxamide] | 390
CC(=O)Nc1ccc(NCCNC(=O)c2ccc(O)c3[nH]c(-c4cccs4)nc23)nc1 [Example 70, N-[2-(5-Acetamidopyridin-2-ylamino)ethyl]-7-hydroxy-2-(thiophen-2-yl)-1H-benzo[d]imidazole-4-carboxamide] | 81
NS(=O)(=O)c1ccc(CCNC(=O)c2ccc(O)c3nc(C4CC4)[nH]c23)cc1 [Example 101, 2-Cyclopropyl-4-hydroxy-N-(4-sulfamoylphenethyl)-1H-benzo[d]imidazole-7-carboxamide] | 120
O=C(NCc1ccc(O)c(O)c1)c1ccc(O)c2[nH]c(-c3cccs3)nc12 [Example 37, N-(3,4-Dihydroxybenzyl)-7-hydroxy-2-(thiophen-2-yl)-1H-benzo[d]imidazole-4-carboxamide] | 38
COC(=O)C(CO)NC(=O)c1ccc(O)c2[nH]c(-c3cccs3)nc12 (stereo not drawn) [Example 15, Methyl 3-Hydroxy-2-[7-hydroxy-2-(thiophen-2-yl)-1H-benzo[d]imidazole-4-carboxamido]propanoate] | 22
CC(=O)NCCNC(=O)c1ccc(O)c2[nH]c(-c3cccs3)nc12 [Example 42, N-(2-Acetamidoethyl)-7-hydroxy-2-(thiophen-2-yl)-1H-benzo[d]imidazole-4-carboxamide] | 74
O=C(NCCCNCCO)c1ccc(O)c2[nH]c(-c3cccs3)nc12 [Example 12, 7-Hydroxy-N-[3-(2-hydroxyethylamino)propyl]-2-(thiophen-2-yl)-1H-benzo[d]imidazole-4-carboxamide] | 180
O=C(N[C@@H](CO)Cc1c[nH]cn1)c1ccc(O)c2[nH]c(-c3cccs3)nc12 [Example 17, (R)-7-Hydroxy-N-[1-hydroxy-3-(1H-imidazol-4-yl)propan-2-yl]-2-(thiophen-2-yl)-1H-benzo[d]imidazole-4-carboxamide] | 170
CC(C)NCCCNC(=O)c1ccc(O)c2[nH]c(-c3cccs3)nc12 [Example 43, N-[3-(Isopropylamino)propyl]-7-hydroxy-2-(thiophen-2-yl)-1H-benzo[d]imidazole-4-carboxamide] | 220
O=C(N[C@@H](Cc1cnc[nH]1)C(=O)O)c1ccc(O)c2[nH]c(-c3cccs3)nc12 [Example 71, (S)-2-[7-Hydroxy-2-(thiophen-2-yl)-1H-benzo[d]imidazole-4-carboxamido]-3-(1H-imidazol-5-yl)propanoic Acid] | 340
CN(C)CCNC(=O)c1ccc(O)c2[nH]c(-c3cccs3)nc12 [Example 36, N-[2-(dimethylamino)ethyl]-7-hydroxy-2-(thiophen-2-yl)-1H-benzo[d]imidazole-4-carboxamide] | 180
O=C(NCCNc1ccccn1)c1ccc(O)c2[nH]c(-c3cccs3)nc12 [Example 11, 7-Hydroxy-N-[2-(pyridin-2-ylamino)ethyl]-2-(thiophen-2-yl)-1H-benzo[d]imidazole-4-carboxamide] | 130
O=C(Nc1ccc(O)cc1)c1ccc(O)c2[nH]c(C3CC3)nc12 [Example 91] | 400
O=C(NCCCn1ccnc1)c1ccc(O)c2[nH]c(-c3cccs3)nc12 [Example 76, N-[3-(1H-Imidazol-1-yl)propyl]-7-hydroxy-2-(thiophen-2-yl)-1H-benzo[d]imidazole-4-carboxamide] | 1.7
NC(=O)c1ccc(OCCNC(=O)c2ccc(O)c3[nH]c(-c4cccs4)nc23)nc1 [Example 49, N-[2-(5-Carbamoylpyridin-2-yloxy)ethyl]-7-hydroxy-2-(thiophen-2-yl)-1H-benzo[d]imidazole-4-carboxamide] | 73
O=C(NCC(O)CO)c1ccc(O)c2nc(C3CC3)[nH]c12 (stereo not drawn) [Example 97, 2-Cyclopropyl-N-(2,3-dihydroxypropyl)-4-hydroxy-1H-benzo[d]imidazole-7-carboxamide] | 150
O=C(NCCCC1C=NNC1=O)c1ccc(O)c2[nH]c(-c3ccco3)nc12 (stereo not drawn) [Example 79] | 30
Cn1cncc1CCNC(=O)c1ccc(O)c2[nH]c(-c3cccs3)nc12 [Example 35, 7-Hydroxy-N-[2-(1-methyl-1H-imidazol-5-yl)ethyl]-2-(thiophen-2-yl)-1H-benzo[d]imidazole-4-carboxamide] | 130
O=C(/C=C/c1cnc[nH]1)Nc1ccc(O)c2[nH]c(-c3cccs3)nc12 [Example 120] | 3000
CS(=O)(=O)Nc1ccc(NCCNC(=O)c2ccc(O)c3[nH]c(-c4cccs4)nc23)nc1 [Example 69, 7-Hydroxy-N-{2-[5-(methylsulfonamido)pyridin-2-ylamino]ethyl}-2-(thiophen-2-yl)-1H-benzo[d]imidazole-4-carboxamide] | 22
